Results on 2 compounds are retold here after patent EP0392976A1, “Monoclonal antibodies to tetracyclic compounds, processes for their production, and applications” (CIBA-GEIGY AG, priority 1989, dated 1990).

Each structure is given as a SMILES string.

Common to all, as to test: inhibition enzyme immunoassay: inhibition of MAb binding to surface bound R-(-)-oxaprotiline-mucin conjugate
What all share (parameters): species or system mouse

One assay deals with MAb 1226S31.3. As to conditions: for IC50: MAb 1226S31.3, read-out: IC₅₀. On the procedure: (§1) The affinities of the monoclonal antibodies of the invention to R-(-)-oxaprotiline can for example be determined in an inhibition enzyme immunoassay according to Friguet et al. (J. Immunol. Methods 77, 305, 1985) wherein the monoclonal antibody to be tested is preincubated with R-(-)-oxaprotiline and, in a second step, exposed to a solid phase coated with an adsorbable conjugate of R-(-)-oxaprotiline, e.g. a protein conjugate. The fraction of the monoclonal antibody not engaged in immunocomplexes binds to the solid phase and is quantified by a secondary antibody-enzyme conjugate directed against the monoclonal antibody. The affinities are expressed as IC₅₀ (inhibition concentration) values, i.e. the concentration of free antigen causing a 50 % inhibition of antibody binding to the solid phase antigen.
(§2) This can be done, for example, in an inhibition enzyme immunoassay wherein the monoclonal antibodies of the invention are preincubated with any of the soluble compounds listed above and the incubation mixture is then tested in the enzyme immunoassay described above.
(§3) The conjugate solution (0.66 mg/ml) is diluted 1000-fold in coating buffer pH 9.8 (477 mg sodium carbonate, 897 mg sodium hydrogen carbonate, 60 mg sodium azide, 300 ml distilled water) and incubated in the wells of a microtitre plate for 2 days at 4°C. The wells are washed three times with PBS containing Tween 20 (Sigma, 0.1 %). Residual adsorption sites on the plate are saturated by incubation with 100 µl of PBS/Tween 20 for 1 h. 100 µl of a solution to be tested for the presence of antibodies to R-(-)-oxaprotiline are incubated in the wells for 1 h at room temperature. After washing three times with PBS/Tween 20, an alkaline phosphatase conjugated anti-mouse IgG antiserum (Sigma) is added in a 1000-fold dilution for 1 h at 37°C. The microtitre plate is washed five times with PBS/Tween 20, and the enzyme-conjugated bound antiserum developed with an alkaline phosphatase substrate consisting of disodium p-nitrophenylphosphate (1 mg/ml; Sigma) in diethanolamine buffer pH 9.8. The substrate gives a yellow coloration which is measured with a colorimeter (Titertek Multiskan) at a wave length of 405 nm after 60 min.
The capacity of a number of therapeutic drugs some of which are used in combination with antidepressants and of biogenic amines to inhibit the binding of the monoclonal antibodies of the invention to the antigen is determined in a two-step inhibition enzyme immunoassay to establish the selectivity of the monoclonal antibodies to the tested compounds.
(§4) The assay is carried out as described in the following.
(§5) The capacity of free R-(-)-oxaprotiline and of a number of compounds which are structurally analogous to R-(-)-oxaprotiline to inhibit the binding of the monoclonal antibodies of the invention to the antigen is determined in an inhibition enzyme immunoassay essentially as described in example 3.2. The MAbs are preincubated with free R-(-)-oxaprotiline and with various structural analogues, respectively, instead of with the test compounds of example 3.2.

A further assay deals with MAb 1225S93.2. The following applies: for IC50: MAb 1225S93.2, read-out: IC₅₀. On the procedure:
as §1, §2, §3, §4, §5

The test system of the next assay is MAb 1219S78.6. As to conditions: for IC50: MAb 1219S78.6, read-out: IC₅₀. On the procedure:
as §1, §2, §3, §4, §5

For the next assay, the system named is MAb 1219S59.11. As to conditions: for IC50: MAb 1219S59.11, read-out: IC₅₀. On the procedure: as §1, §2, §3, §4, §5
The next assay has as its system MAb 1228P63.1. The following applies: for IC50: MAb 1228P63.1, read-out: IC₅₀. On the procedure:
as §1, §2, §3, §4, §5

In the case of `CNCC(O)CC12CCC(c3ccccc31)c1ccc(C(F)(F)F)cc12` (centres unmarked) [compound 16], the rel. affinity is given as greater than 149 in the assay with MAb 1226S31.3, 251.4 in the assay on MAb 1225S93.2, greater than 3448 with MAb 1219S59.11 and greater than 1667 in the assay with MAb 1228P63.1. For the same compound, the IC50 on MAb 1226S31.3 is greater than 1000 nM; at MAb 1225S93.2, 93 nM; at MAb 1219S78.6, greater than 1000 nM; at MAb 1219S59.11, greater than 1000 nM; on MAb 1228P63.1, greater than 1250 nM. Moreover, in the assay on MAb 1219S78.6, the “IC50 relative to reference compound (fold)” value is on record as greater than 3279.
For the compound `CN(C)CC(O)CC12CCC(c3ccccc31)c1ccc(C(F)(F)F)cc12` (centres unmarked) [compound 17], the rel. affinity in the assay with MAb 1226S31.3 is on record as greater than 149; with MAb 1225S93.2 it was 628.4; with MAb 1219S59.11 it was greater than 3448; with MAb 1228P63.1, greater than 1667. Further, the IC50 is greater than 1000 nM on MAb 1226S31.3; 232 nM at MAb 1225S93.2; greater than 1000 nM on MAb 1219S78.6; greater than 1000 nM at MAb 1219S59.11; greater than 1250 nM at MAb 1228P63.1. Besides, in the assay on MAb 1219S78.6, the “IC50 relative to reference compound (fold)” value is reported as greater than 3279.
